Data: patent US20240294471A1, “ROS-RESPONSIVE CAPTOPRIL-CINNAMALDEHYDE PRODRUGS AND COMPOSITIONS AND METHODS THEREOF” (The University of Hong Kong, priority 2021, published 2024)

Experiments:
[1] = system: LPS-stimulated Raw264.7 cells; assay: mRNA levels of proinflammatory cytokines by qRT-PCR; type: cell-based; conditions: 24 h, dose dependent, FIGS. 4A-4C
Procedure: […] Briefly, Raw 264.7 cells were seeded in 12-well plates. After a 24 h incubation, prodrugs were added to the cells at different concentrations and incubated for 1 h, and then the cells were treated with or without LPS (10 μg/mL) for another 24 h. qRT-PCR experiments were measured according to the manufacturer's instruction. Three replicate wells were used in this experiment.

[2] = system: LPS-stimulated Raw 264.7 cells; assay: NO generation (nitrite in culture supernatant, Griess reagent); type: cell-based; conditions: Raw264.7 cells, LPS 10 μg/mL, 24 h, dose-dependent, FIG. 2
Procedure: Nitrite levels, an index of cellular NO production, in culture supernatants of Raw 264.7 cells were determined using a modified Griess reagent. Briefly, Raw 264.7 cells were seeded in 24-well plates. After a 24 h incubation, prodrugs were added to the cells at different concentrations and incubated for 1 h, and then the cells were treated with or without LPS (10 μg/mL) for another 24 h. The supernatant was mixed with an equal volume of Griess reagent and incubated at room temperature for 15 min. The absorbance at 540 nm was measured. Three replicate wells were used in this experiment.

Raw 264.7 cells = assay: Cytotoxicity test (MTT assay); type: cell-based; conditions: Raw264.7 cells, 24 h, with or without LPS (10 μg/mL), tested concentration range, FIG. 1
Procedure: The effect of the prodrug on the viability of Raw 264.7 cells was determined using the MTT assay. Briefly, Raw 264.7 cells were seeded in 24-well plates. After a 24 h incubation, prodrugs were added to the cells at different concentrations and incubated for 1 h, and then, the cells were treated with or without LPS (10 μg/mL) for another 24 h. Next, 50 μL of MTT solution (5 mg/mL) were added to each well and the cells were incubated for 3 h at 37° C. Then, 1 mL of DMSO were added to dissolve the MTT-formazan crystal. The absorbance at 570 nm and 630 nm were measured. Three replicate wells were used in this experiment.

[3] = ROS-responsiveness: HPLC monitoring of CAPT-CA degradation in the presence of H2O2; type: physicochemical; conditions: CAPT-CA 160 μM, H2O2 40 mM
Procedure: HPLC spectra of CAPT, CA, CAPT-CA prodrug, and the degradation of CAPT-CA (160 μM) in the presence of H2O2 (40 mM) for different times were obtained. A C18 column was used. The mobile phase A was acetonitrile containing 0.1% TFA and mobile phase B was water containing 0.1% TFA. The elution procedure was shown as below: 0-5 min: 98% B→98% B; 5-15 min: 98% B→40% B; 15-17 min: 40% B→40% B. The flow rate was 1.5 mL/min. The detection wavelength was 220 nm.
To evaluate the ROS-responsiveness of CAPT-CA, high performance liquid chromatography (HPLC) has been employed to monitor the release of CAPT and CA after incubation of CAPT-CA with a ROS reagent (hydrogen peroxide, H2O2). The retention time of free CAPT, free CA and CAPT-CA was at 10.138 min, 13.275 min, 14.283 min, respectively.

[4] = system: LPS-stimulated Raw264.7 cells; assay: Protein levels of TNF-α, IL-1β and IL-6 by ELISA; type: cell-based; conditions: supernatant, 24 h, dose dependent, FIGS. 3A-3C
Procedure: The protein levels of TNF-α, IL-1β and IL-6 were determined by ELISA. Briefly, Raw 264.7 cells were seeded in 24-well plates. After a 24 h incubation, prodrugs were added to the cells at different concentrations and incubated for 1 h, and then the cells were treated with or without LPS (10 μg/mL) for another 24 h. The supernatants were collected for determination of protein levels according to the ELISA kit's instruction. Three replicate wells were used in this experiment.

- prodrug peak in HPLC after incubation with H2O2 (release of free CA and CAPT) ([3]; 4 h): prodrug peak decreases
- prodrug peak in HPLC after incubation with H2O2 ([3]; 22 h): almost disappeared
Compound: CC(CSC(/C=C/c1ccccc1)SCC(C)C(=O)N1CCCC1C(=O)O)C(=O)N1CCCC1C(=O)O (stereo not drawn) [CAPT-CA]
- mRNA levels of the cytokines (TNF-α, IL-6, IL-1β) [1]: significantly down-regulates
- NO generation resulting from LPS stimulation [2]: significantly suppressed
- cytotoxicity of the prodrug (Raw 264.7 cells): minimal
- protein levels of the cytokines (TNF-α, IL-1β, IL-6) [4]: significantly down-regulates
